These results are taken from patent US10301263B2, “Anticonvulsant compound” (Royal Holloway and Bedford New College, priority 2014, dated 2019).

Data set [1] has as its system Metrazol-induced clonic seizures. The data set is described as follows: Subcutaneous Metrazol seizure threshold test (scMET). The data set is classed as in vivo, mice. To be noted: i.p. The procedure: Subcutaneous injection of Metrazol produces clonic seizures in animals. […] Animals were pretreated with each compound (100 mg/kg) in a similar manner to the MES test. Seizure activity was induced by administration of Metrazol (CD97: 85 mg/kg mice; 70 mg/kg rats) into skin in the midline of the neck.

Data set [2] concerns histone deacetylase (HDAC). The data set is described as follows: HDAC activity assay (fluorescent kit, human nuclear enzyme extracts from HeLa cells). The data set is classed as biochemical. The method, then:
FIG. 4b is a graph showing quantification of a histone deacetylase (HDAC) inhibition assay employing human nuclear enzyme extracts (from HeLa cells) as the source of HDAC activity shown as fitted dose-response curves for 4-BCCA;
Histone deacetylase activity was analyzed by using an in vitro commercial assay kit, the HDAC fluorescent activity assay/drug discovery kit HDAC activity (Biomol, Plymouth Meeting, Pa.). The assay was conducted at room temperature according to the manufacturer's protocol, using Trichostatin A (a HDAC inhibitor; at 1 μM concentration) as a positive control. Data were derived from at least triplicate experiments with each experiment comprising at least duplicate measurements (n=6) normalized to controls (without VPA or fatty acids).

Data set [3] concerns rat entorhinal cortex-hippocampus slices. The data set is described as follows: PTZ-induced epileptiform activity in entorhinal cortex-hippocampus slices (CA1 field recording). The data set is classed as cell-based. The procedure:
The preparation of entorhinal cortex-hippocampus slices and electrophysiological recording in CA1 were described previously (Armand et al., 1998; Chang and Walker, 2011). In brief, male rats (50-150 g) were decapitated after killing by intraperitoneal injection with an overdose of pentobarbitone (500 mg/kg). The brain was removed and preserved in oxygenated ice-cold sucrose solution in mM: NaCl 87, KCl 2.5, MgCl2 7, CaCl2 0.5, NaH2PO4 1.25, NaHCO3 26.2 sucrose 75, glucose 3. Transverse slices (350 μm) were prepared with a vibratome (VIBRATOME® 1500, Intracel Ltd) and were then stored in an interface chamber containing artificial cerebrospinal fluid solution (aCSF) in mM: NaCl 119, KCl 2.5, MgSO4 1.3, CaCl2 2.5, NaH2PO4 1, NaHCO3 26.2 glucose 16.6. The slices were stored for over one hour. During the experiment, the slices were transferred from the interface chamber into a submerged recording chamber and continuously perfused with prewarmed (about 36° C.) oxygenated (95% O2, 5% CO2) aCSF. A field potential recording was made by placing a glass microelectrodes filled with aCSF solution in stratum radiatum of CA1. A bipolar stimulating electrode was positioned in the Schaffer collateral/commissural fiber pathway in stratum radiatum to confirm slice viability. […] Anticonvulsant effects were evaluated by measuring the frequency of the discharges every minute.

The test system of data set [4] is 6 Hz corneal stimulation seizures in CF1 mice. The data set is described as follows: 6 Hz psychomotor seizure test. It is filed as in vivo. To be noted: Mus musculus, ip, 32 mA for 3 s. The procedure: Adult male CF1 mice (18-25 g) were pretreated intraperitoneally (i.p.) with each compound at 100-150 mg/kg. After pretreatment, each mouse was given a drop of 0.5% tetracaine hydrochloride to each eye, following by low-frequency (6 Hz) stimulation (32 mA) for 3 seconds delivered through corneal electrodes. Animals were manually restrained and released immediately following the stimulation and observed for the presence or absence of seizure activity at five time points (1/4, 1/2, 1, 2, and 4 hours). Typically, the 6 Hz stimulation results in a seizure characterized by a minimal clonic phase that is followed by stereotyped, automatistic behaviors, including twitching of the vibrissae, and Straub-tail. Animals not displaying such behaviors were considered protected.
The inventors first employed a low frequency (6 Hz), long duration (3 s) corneal stimulation model because numerous second generation anti-epileptic drugs show poor seizure control in this assay (and so such a model may provide evidence of efficacy in drug resistant epilepsy). In this model, compounds are pre-administered to mice via i.p. injection and mice are challenged with sufficient current to elicit a psychomotor response (32 mA for 3 s) (Toman et al., 1952). The model causes forelimb clonus and then automatistic behavior characteristic of limbic epilepsy in humans. […]

Data set [5] has as its system corneal kindled CF1 mice. The data set is described as follows: Corneal kindled mouse model (CKM). It is filed as in vivo. The note with it: i.p. The procedure: This model involves the use of corneal kindled mouse model for prediction of efficacy in human partial seizures (Rowley and White, 2010). Adult male CF1 mice (18-25 g) mice were stimulated through corneal electrodes (3 mA, 60 Hz, 3 seconds) after administration of 0.5% tetracaine hydrochloride to each eye. This procedure was carried out twice daily for an average of 12 days.
After 5-7-days stimulation-free period once the mice were fully kindled, the test compounds were administrated (100 mg/kg, i.p.). Mice in each group were then tested at various time points (0.25, 0.5, 1, 2, 4 hours) after drug dosing. Mice displaying a seizure score <3 are considered protected.

The test system of data set [6] is MES-induced seizures. The data set is described as follows: Maximal electroshock test (MES). It is filed as in vivo, mice. The note with it: Mus musculus, ip. The method, then: The MES is a model for generalized tonic-clonic seizures which provides an indication of a compound's ability to prevent seizure spread when all neuronal circuits in the brain are maximally active. Animals are pretreated with compounds (100-125 mg/kg) by i.p. injection. Seizure activity was induced by delivery of 60 Hz of alternating current (50 mA in mice, 150 in rats) for 0.2 s through corneal electrodes which had been primed with an electrolyte solution containing an anesthetic agent (0.5% tetracaine HCl). An animal is considered “protected” from MES-induced seizures upon abolition of the hind limb tonic extensor component of the seizure (Swinyard et al., 1995; White et al., 1995; White et al., 2007).
In general terms: The maximal electroshock test induces tonic seizures with an electrical stimulus.

In data set [7] the target is AMPA receptors. Description: AMPA receptor mediated current, AMPA receptors expressed in oocytes (FIG. 1). The data set is classed as cell-based. The method, then:
Xenopus laevis oocytes were purchased from the European Xenopus Resource Centre, University of Portsmouth.
The bath solutions were perfused at a rate of 10 ml/min.

The test system of data set [8] is corneal kindled CF1 mice. The note with it: corneal kindled mouse; cited from earlier work.
Data set [9] relates to rat entorhinal cortex-hippocampus slices. The note with it: PTZ-induced seizure-like activity in rat hippocampal slices; Chang et al., 2013; cited from earlier work.
Data set [10] relates to Metrazol-induced clonic seizures. To be noted: scMET; Rowley and White, 2010; cited from earlier work.
The conditions of data set [11]: DSMV IV, 2000; cited from earlier work.

For orientation: ED50 means the midpoint of the dose-response relation. Lower therefore signals greater potency. Regarding `CCCC[C@H]1CC[C@H](C(=O)O)CC1` [Compound 4-BCCA, trans-4-butylcyclohexane carboxylic acid], the EC50 value in [1] was around 150 mg/kg; in [5], 44 mg/kg. Moreover, the HDAC inhibition entry in data set [2] (FIG. 4B dose-response) is listed as “no HDAC inhibition”. Further, in data set [2] (upto 10 mM, HDAC extract derived from a human cell line), the HDAC inhibitory effect result is “does not cause significant inhibitory effect”. For the same molecule, the “epileptiform activity (frequency of PTZ-induced burst discharges)” value in data set [3] (PTZ 2 mM, K+ 6 mM, 20-40 minute treatment, n=5, 1 mM) is reported as 1.7±1.5 % of baseline. For the same molecule, the “block in seizure activity” value in data set [3] (PTZ-induced seizure-like activity in rat hippocampal slices) was 100%. The ED50 is 81 mg/kg in data set [4] and 100 mg/kg in data set [6]. For the same molecule, the “potency of AMPA receptors inhibition (as determined by IC50) relative to decanoic acid (DA) and 4-ethyloctanoic acid (4-EOA)” value in data set [7] was “comparable potency”.

One may read the IC50 as the concentration at which inhibition is half-maximal. As to `CCCC(CCC)C(=O)O` [valproic acid, 2-propylpentanoic acid], the “equivalent activity (to EC50) dose” value in data set [8] is 174 mg/kg. Further, the IC50 in [2] (HDAC extract derived from a human cell line, read-out: IC50 against HDAC) turned out to be 2300 µM. The “reduction in seizure activity” value in data set [9] is 23%. In addition, in data set [10], the “equivalent effect (to EC50) dose” value was 191 mg/kg. Besides, the “concentrations found in plasma” value in data set [11] was 400 to 700 µM.
